Test results as given in ChEMBL document CHEMBL1201862, “PubChem BioAssay data set” (2004).
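Briefly, cells in 96-well plates were exposed to five compound concentrations for 48 h, and endpoints were estimated by linear interpolation. GI50 marks 50% less growth.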 Calls of active or inactive are those of the source. No stated cut-off is given here; in the data, active = GI50 up to about 1.1 µM and inactive = higher.

Experiments:
Assay in all cases: NCI-60 cell line screen, 48 h
COLO 205 = tested on: COLO 205
SK-OV-3 = tested on: SK-OV-3
U-251 = tested on: U-251
SW-620 = tested on: SW-620
SK-MEL-28 = tested on: SK-MEL-28
K562 = tested on: K562
OVCAR-8 = tested on: OVCAR-8
UO-31 = tested on: UO-31
KM12 = tested on: KM12
HCT-116 = tested on: HCT-116
RPMI-8226 = tested on: RPMI-8226
HCC 2998 = tested on: HCC 2998
M14 = tested on: M14
MDA-MB-231 = tested on: MDA-MB-231
OVCAR-4 = tested on: OVCAR-4
HOP-92 = tested on: HOP-92
CCRF-CEM = tested on: CCRF-CEM
NCI-H460 = tested on: NCI-H460
LOX IMVI = tested on: LOX IMVI
Hs-578T = tested on: Hs-578T
SNB-19 = tested on: SNB-19
SR = tested on: SR
MOLT-4 = tested on: MOLT-4
SF-268 = tested on: SF-268
NCI-H226 = tested on: NCI-H226
MDA-MB-435 = tested on: MDA-MB-435
NCI/ADR-RES = tested on: NCI/ADR-RES
DU-145 = tested on: DU-145
HL-60 = tested on: HL-60
HT-29 = tested on: HT-29
A498 = tested on: A498
NCI-H23 = tested on: NCI-H23
HOP-62 = tested on: HOP-62
PC-3 = tested on: PC-3
UACC-257 = tested on: UACC-257
IGROV-1 = tested on: IGROV-1
SF-539 = tested on: SF-539
OVCAR-3 = tested on: OVCAR-3
T47D = tested on: T47D
OVCAR-5 = tested on: OVCAR-5
UACC-62 = tested on: UACC-62
BT-549 = tested on: BT-549
A549 = tested on: A549
SK-MEL-5 = tested on: SK-MEL-5
ACHN = tested on: ACHN
SNB-75 = tested on: SNB-75
TK-10 = tested on: TK-10
Malme-3M = tested on: Malme-3M
SF-295 = tested on: SF-295
MDA-N = tested on: MDA-N
HCT-15 = tested on: HCT-15
SN12C = tested on: SN12C
EKVX = tested on: EKVX
MCF7 = tested on: MCF7
SK-MEL-2 = tested on: SK-MEL-2
786-0 = tested on: 786-0
RXF 393 = tested on: RXF 393
CAKI-1 = tested on: CAKI-1

SMILES: O=C(O)C1(Cc2ccc3c(c2)CCC3)Cc2ccccc2C1=O (stereo not given)
- GI50 (COLO 205): 52.6 µM (inactive)
- GI50 (SK-OV-3): 50.6 µM (inactive)
- GI50 (U-251): 38.4 µM (inactive)
- GI50 (SW-620): 75.7 µM (inactive)
- GI50 (SK-MEL-28): > 100 µM (inactive)
- GI50 (K562): 50.5 µM (inactive)
- GI50 (OVCAR-8): 83 µM (inactive)
- GI50 (UO-31): 56 µM (inactive)
- GI50 (KM12): 39.7 µM (inactive)
- GI50 (HCT-116): 39 µM (inactive)
- GI50 (RPMI-8226): 35.8 µM (inactive)
- GI50 (HCC 2998): 43.5 µM (inactive)
- GI50 (M14): > 100 µM (inactive)
- GI50 (MDA-MB-231): > 100 µM (inactive)
- GI50 (OVCAR-4): 55.6 µM (inactive)
- GI50 (HOP-92): 20.8 µM (inactive)
- GI50 (CCRF-CEM): 35.5 µM (inactive)
- GI50 (NCI-H460): 50.1 µM (inactive)
- GI50 (LOX IMVI): 78 µM (inactive)
- GI50 (Hs-578T): 47.4 µM (inactive)
- GI50 (SNB-19): 79.3 µM (inactive)
- GI50 (SR): 59 µM (inactive)
- GI50 (MOLT-4): 91.4 µM (inactive)
- GI50 (SF-268): 63.8 µM (inactive)
- GI50 (NCI-H226): 91.4 µM (inactive)
- GI50 (MDA-MB-435): > 100 µM (inactive)
- GI50 (NCI/ADR-RES): 58.1 µM (inactive)
- GI50 (DU-145): 75.3 µM (inactive)
- GI50 (HL-60): 43.5 µM (inactive)
- GI50 (HT-29): > 100 µM (inactive)
- GI50 (A498): 42.5 µM (inactive)
- GI50 (NCI-H23): 46.2 µM (inactive)
- GI50 (HOP-62): 57.8 µM (inactive)
- GI50 (PC-3): 46.7 µM (inactive)
- GI50 (UACC-257): > 100 µM (inactive)
- GI50 (IGROV-1): 57.8 µM (inactive)
- GI50 (SF-539): 49.1 µM (inactive)
- GI50 (OVCAR-3): 54 µM (inactive)
- GI50 (T47D): 40.9 µM (inactive)
- GI50 (OVCAR-5): > 100 µM (inactive)
- GI50 (UACC-62): 57.9 µM (inactive)
- GI50 (BT-549): 37.8 µM (inactive)
- GI50 (A549): 42.3 µM (inactive)
- GI50 (SK-MEL-5): 79.4 µM (inactive)
- GI50 (ACHN): 45.4 µM (inactive)
- GI50 (SNB-75): 38.8 µM (inactive)
- GI50 (TK-10): > 100 µM (inactive)
- GI50 (Malme-3M): > 100 µM (inactive)
- GI50 (SF-295): 33.6 µM (inactive)
- GI50 (MDA-N): > 100 µM (inactive)
- GI50 (HCT-15): 34.8 µM
- GI50 (SN12C): 63.7 µM (inactive)
- GI50 (EKVX): 63.2 µM (inactive)
- GI50 (MCF7): > 100 µM (inactive)
- GI50 (SK-MEL-2): 46 µM (inactive)
- GI50 (786-0): > 100 µM (inactive)
- GI50 (RXF 393): > 100 µM (inactive)

SMILES: O=C(O)CCC(NC(=O)c1ccc(Nc2cnc3ccc(C(F)(F)F)cc3n2)cc1)C(=O)O (stereo not given)
- GI50 (COLO 205): > 100 µM (inactive)
- GI50 (SK-OV-3): > 100 µM (inactive)
- GI50 (U-251): > 100 µM (inactive)
- GI50 (SW-620): > 100 µM (inactive)
- GI50 (SK-MEL-28): > 100 µM (inactive)
- GI50 (K562): > 100 µM (inactive)
- GI50 (OVCAR-8): > 100 µM (inactive)
- GI50 (UO-31): > 100 µM (inactive)
- GI50 (KM12): > 100 µM (inactive)
- GI50 (HCT-116): > 100 µM (inactive)
- GI50 (RPMI-8226): > 100 µM (inactive)
- GI50 (HCC 2998): > 100 µM (inactive)
- GI50 (M14): > 100 µM (inactive)
- GI50 (MDA-MB-231): > 100 µM (inactive)
- GI50 (OVCAR-4): > 100 µM (inactive)
- GI50 (HOP-92): > 100 µM (inactive)
- GI50 (CCRF-CEM): > 100 µM (inactive)
- GI50 (NCI-H460): > 100 µM (inactive)
- GI50 (LOX IMVI): > 100 µM (inactive)
- GI50 (Hs-578T): 45.9 µM (inactive)
- GI50 (SNB-19): > 100 µM (inactive)
- GI50 (SR): > 100 µM (inactive)
- GI50 (MOLT-4): > 100 µM (inactive)
- GI50 (SF-268): > 100 µM (inactive)
- GI50 (NCI-H226): > 100 µM (inactive)
- GI50 (MDA-MB-435): > 100 µM (inactive)
- GI50 (NCI/ADR-RES): > 100 µM (inactive)
- GI50 (DU-145): > 100 µM (inactive)
- GI50 (HL-60): > 100 µM (inactive)
- GI50 (HT-29): > 100 µM (inactive)
- GI50 (A498): > 100 µM (inactive)
- GI50 (NCI-H23): > 100 µM (inactive)
- GI50 (HOP-62): > 100 µM (inactive)
- GI50 (PC-3): > 100 µM (inactive)
- GI50 (UACC-257): > 100 µM (inactive)
- GI50 (IGROV-1): > 100 µM (inactive)
- GI50 (SF-539): > 100 µM (inactive)
- GI50 (OVCAR-3): > 100 µM (inactive)
- GI50 (T47D): > 100 µM (inactive)
- GI50 (OVCAR-5): > 100 µM (inactive)
- GI50 (UACC-62): > 100 µM (inactive)
- GI50 (BT-549): > 100 µM (inactive)
- GI50 (A549): > 100 µM (inactive)
- GI50 (SK-MEL-5): > 100 µM (inactive)
- GI50 (ACHN): > 100 µM (inactive)
- GI50 (SNB-75): > 100 µM (inactive)
- GI50 (TK-10): > 100 µM (inactive)
- GI50 (Malme-3M): > 100 µM (inactive)
- GI50 (SF-295): > 100 µM (inactive)
- GI50 (MDA-N): > 100 µM (inactive)
- GI50 (HCT-15): > 100 µM
- GI50 (SN12C): > 100 µM (inactive)
- GI50 (EKVX): > 100 µM (inactive)
- GI50 (MCF7): > 100 µM (inactive)
- GI50 (SK-MEL-2): > 100 µM (inactive)
- GI50 (CAKI-1): > 100 µM (inactive)
- GI50 (786-0): > 100 µM (inactive)
- GI50 (RXF 393): > 100 µM (inactive)
